Measurements as given in patent publication US20250332178A1, “METHODS OF TREATING MYCOBACTERIAL INFECTIONS USING TETRACYCLINE COMPOUNDS” (priority 2018, published 2025).
Converted amounts (≈) assume the structure as drawn. Where two headings read alike, the source gives them in different places.

Experiments:
[1] = test system: M. chelonae; assay: MIC (CLSI broth dilution), RGM isolates; type: cell-based; settings: Mycobacteroides chelonae, read-out: MIC
[2] = test system: rapid-growing mycobacteria (RGM) isolates; assay: MIC (CLSI broth dilution), all RGM isolates; type: cell-based, nontuberculous mycobacteria; settings: all 50 RGM isolates
[3] = test system: M. mucogenium group; assay: MIC (CLSI broth dilution), RGM isolates; type: cell-based; settings: read-out: MIC
[4] = test system: M. abscessus complex; assay: MIC (CLSI broth dilution), RGM isolates; type: cell-based; settings: Mycobacteroides abscessus, read-out: MIC
[5] = test system: M. arupense; assay: MIC (CLSI broth dilution), slow-growing NTM isolates; type: cell-based; settings: isolate 11, Other; read-out: MIC
[6] = test system: M. immunogenum group; assay: MIC (CLSI broth dilution), RGM isolates; type: cell-based; settings: M. immunogenum, read-out: MIC
[7] = test system: M. smegmatis group; assay: MIC (CLSI broth dilution), RGM isolates; type: cell-based; settings: Mycolicibacterium smegmatis, read-out: MIC
[8] = test system: M. simiae; assay: MIC (CLSI broth dilution), slow-growing NTM isolates; type: cell-based; settings: read-out: MIC
[9] = test system: M. fortuitum group; assay: MIC (CLSI broth dilution), RGM isolates; type: cell-based; settings: Mycolicibacterium fortuitum, read-out: MIC

In the case of CN(C)c1ccc(O)c2c1C[C@H]1C[C@H]3[C@H](N(C)C)C(O)=C(C(N)=O)C(=O)[C@@]3(O)C(O)=C1C2=O [minocycline], the MIC ([1]; isolate 18, M. chelonae) is reported as over 8 µg/mL, the MIC ([1]; isolate 19, M. chelonae) is reported as over 8 µg/mL and the MIC ([1]; isolate 20, M. chelonae) is reported as over 8 µg/mL. The MIC ([1]; isolate 21, M. chelonae) was over 8 µg/mL, the MIC ([1]; isolate 22, M. chelonae) was over 8 µg/mL and the MIC50 ([2]; read-out: MIC50) was 8 µg/mL (≈ 17.5 µM). It also gave an MIC90 ([2]; read-out: MIC90) of over 8 µg/mL, an MIC ([3]; isolate 39, M. mucogenicum group, M. mucogenicum) of at most 0.5 µg/mL and an MIC ([3]; isolate 40, M. mucogenicum group, M. mucogenicum) of at most 1 µg/mL. It also gave an MIC ([3]; isolate 41, M. mucogenicum group, M. mucogenicum) of at most 0.5 µg/mL, an MIC ([3]; isolate 42, M. mucogenicum group, M. mucogenicum) of at most 0.5 µg/mL and an MIC ([3]; isolate 43, M. mucogenicum group, M. phocaicum) of at most 0.5 µg/mL. It also gave an MIC ([3]; isolate 44, M. mucogenicum group, M. phocaicum) of over 8 µg/mL, an MIC ([3]; isolate 45, M. mucogenicum group, M. phocaicum) of over 8 µg/mL and an MIC ([3]; isolate 46, M. mucogenicum group, M. phocaicum) of 8 µg/mL (≈ 17.5 µM). For the same compound, the MIC ([3]; isolate 47, M. mucogenicum group, M. phocaicum) was at most 0.5 µg/mL, the MIC ([3]; isolate 48, M. mucogenicum group, M. phocaicum) was 2 µg/mL (≈ 4.37 µM) and the MIC ([4]; isolate 1, M. abscessus complex, erm gene type MAB30) was over 8 µg/mL. For the same compound, the MIC ([4]; isolate 2, M. abscessus complex, erm gene type MAB30) was 8 µg/mL (≈ 17.5 µM), the MIC ([4]; isolate 3, M. abscessus complex, erm gene type MAB30) was over 8 µg/mL and the MIC ([4]; isolate 4, M. abscessus complex, erm gene type massiliense) was 4 µg/mL (≈ 8.74 µM). It also gave an MIC ([4]; isolate 5, M. abscessus complex, erm gene type massiliense/subsp. abs hybrid) of over 8 µg/mL, an MIC ([4]; isolate 6, M. abscessus complex, erm gene type Type 1 abscessus) of over 8 µg/mL and an MIC ([4]; isolate 7, M. abscessus complex, erm gene type Type 1 abscessus) of 8 µg/mL (≈ 17.5 µM). The MIC ([4]; isolate 8, M. abscessus complex, erm gene type Type 1 abscessus) was over 8 µg/mL, the MIC ([4]; isolate 9, M. abscessus complex, erm gene type Type 1 abscessus) was over 8 µg/mL and the MIC ([4]; isolate 10, M. abscessus complex, erm gene type Type 1 abscessus) was over 8 µg/mL. It also gave an MIC ([4]; isolate 11, M. abscessus complex, erm gene type Type 6 abscessus) of 4 µg/mL (≈ 8.74 µM), an MIC ([4]; isolate 12, M. abscessus complex, erm gene type Type 6 abscessus) of over 8 µg/mL and an MIC ([4]; isolate 13, M. abscessus complex, erm gene type Type 6 abscessus) of over 8 µg/mL. For the same compound, the MIC ([4]; isolate 14, M. abscessus complex, erm gene type Type 6 abscessus) was 4 µg/mL (≈ 8.74 µM), the MIC ([4]; isolate 15, M. abscessus complex, erm gene type Type 7 abscessus) was 8 µg/mL (≈ 17.5 µM) and the MIC ([4]; isolate 16, M. abscessus complex, erm gene type Type 7 abscessus) was over 8 µg/mL. It also gave an MIC ([4]; isolate 17, M. abscessus complex, erm gene type Type 8 abscessus) of 4 µg/mL (≈ 8.74 µM), an MIC [5] of 8 µg/mL (≈ 17.5 µM) and an MIC ([6]; isolate 35, M. immunogenum group) of over 8 µg/mL. For the same compound, the MIC ([6]; isolate 36, M. immunogenum group) was at most 0.5 µg/mL, the MIC ([6]; isolate 37, M. immunogenum group) was over 8 µg/mL and the MIC ([6]; isolate 38, M. immunogenum group) was over 8 µg/mL. For the same compound, the MIC ([7]; isolate 49, M. smegmatis group, M. goodii) was at most 0.5 µg/mL, the MIC ([7]; isolate 50, M. smegmatis group, M. wolinskyi) was at most 0.5 µg/mL and the MIC ([8]; isolate 13, Other) was 4 µg/mL (≈ 8.74 µM). For the same compound, the MIC ([8]; isolate 14, Other) was over 8 µg/mL, the MIC ([8]; isolate 15, Other) was over 8 µg/mL and the MIC ([9]; isolate 23, M. fortuitum group, M. fortuitum) was at most 0.5 µg/mL. It also gave an MIC ([9]; isolate 24, M. fortuitum group, M. fortuitum) of at most 0.5 µg/mL, an MIC ([9]; isolate 25, M. fortuitum group, M. fortuitum) of over 8 µg/mL and an MIC ([9]; isolate 26, M. fortuitum group, M. porcinum) of 1 µg/mL (≈ 2.19 µM). The MIC ([9]; isolate 27, M. fortuitum group, M. porcinum) was 4 µg/mL (≈ 8.74 µM), the MIC ([9]; isolate 28, M. fortuitum group, M. porcinum/M. boenickei) was 1 µg/mL (≈ 2.19 µM) and the MIC ([9]; isolate 29, M. fortuitum group, M. porcinum/M. boenickei) was 4 µg/mL (≈ 8.74 µM). The MIC ([9]; isolate 30, M. fortuitum group, M. porcinum/M. boenickei) was 8 µg/mL (≈ 17.5 µM), the MIC ([9]; isolate 31, M. fortuitum group, M. senegalense) was at most 0.5 µg/mL and the MIC ([9]; isolate 32, M. fortuitum group, M. senegalense) was at most 0.5 µg/mL. For the same compound, the MIC ([9]; isolate 33, M. fortuitum group, M. senegalense) was at most 0.5 µg/mL and the MIC ([9]; isolate 34, M. fortuitum group, M. senegalense) was at most 0.5 µg/mL.
